Reference: article PMC8296573, “Synthesis and Biological Evaluation of Fingolimod Derivatives as Antibacterial Agents” (ACS Omega, 2021)
In brackets after ≈: the same amount, converted by molar mass. Where two headings read alike, the source gives them in different places.

Tests used:
[1] = tested on: P. aeruginosa ATCC 9027; assay: Antibacterial activity, pre-exposure; type: cell-based, Pseudomonas aeruginosa; conditions: for Average inhibition %, biofilms viability / Average inhibition %, planktonic cells viability / inhibition at 50 µM / inhibition at 100 µM / inhibition at 150 µM / inhibition at 200 µM: P. aeruginosa ATCC 9027, pre-exposure, ± SD; for inhibition at 50 µM / inhibition at 100 µM / inhibition at 150 µM / inhibition at 200 µM: Pseudomonas aeruginosa, ATCC9027
Procedure, shortened: (§1)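 Pre-exposure format: compound and bacterial culture co-incubated 18 h, 37 °C, aerobic, 220 rpm. Planktonic: turbidity (OD) plus resazurin viability, 20 μM final. Biofilm: PBS wash, 20 μM resazurin, then ethanol fixation and crystal violet staining, A595.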

[2] = tested on: A. baumannii NCTC 13423; assay: Antibacterial activity, pre-exposure; type: cell-based, Acinetobacter baumannii; conditions: for Average inhibition %, biofilms viability / Average inhibition %, planktonic cells viability / inhibition at 10 µM / inhibition at 15 µM / inhibition at 25 µM / inhibition at 50 µM: A. baumannii NCTC 13423, pre-exposure, ± SD; for inhibition at 10 µM / inhibition at 15 µM / inhibition at 25 µM / inhibition at 50 µM / MIC: Acinetobacter baumannii, NCTC13423
Procedure, shortened: as §1

[3] = tested on: S. aureus ATCC 25923; assay: Antibacterial activity, pre-exposure (planktonic cells and biofilm formation); type: cell-based, Staphylococcus aureus; conditions: for MIC / inhibition at 5 µM / inhibition at 10 µM / inhibition at 15 µM / inhibition at 25 µM: Staphylococcus aureus, ATCC25923; for inhibition at 5 µM / inhibition at 10 µM / inhibition at 15 µM / inhibition at 25 µM / Average inhibition %, biofilms viability / Average inhibition %, planktonic cells viability: pre-exposure, ± SD
Procedure, shortened: as §1

[4] = tested on: S. aureus ATCC 25923; assay: Antibacterial activity, post-exposure on preformed 18-h-old biofilms; type: cell-based, Staphylococcus aureus; conditions: ± SD; for inhibition at 25 µM / inhibition at 50 µM / inhibition at 100 µM / inhibition at 200 µM: Staphylococcus aureus; for inhibition at 25 µM: ATCC25923, 25 µM; for inhibition at 50 µM: ATCC25923, 50 µM; for inhibition at 100 µM: ATCC25923, 100 µM; for inhibition at 200 µM: ATCC25923, 200 µM
Procedure, shortened: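 Compounds were applied to preformed 18-h biofilms after medium change and left 24 h. Read-outs: planktonic OD plus resazurin fluorescence (20 μM), biofilm metabolic activity by resazurin 30 min at 37 °C, then biomass by crystal violet absorbance at 595 nm after ethanol fixation.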

[5] = 50 µM, read-out: Average inhibition %, biofilms biomass
[6] = 50 µM, read-out: Average inhibition %, planktonic cells turbidity
[7] = 10 µM, read-out: Average inhibition %, biofilms biomass
[8] = 10 µM, read-out: Average inhibition %, planktonic cells turbidity
[9] = 15 µM, read-out: Average inhibition %, biofilms biomass
[10] = 15 µM, read-out: Average inhibition %, planktonic cells turbidity
[11] = 25 µM, read-out: Average inhibition %, biofilms biomass
[12] = 25 µM, read-out: Average inhibition %, planktonic cells turbidity
[13] = read-out: Average inhibition %, biofilms biomass
[14] = read-out: Average inhibition %, planktonic cells turbidity

SMILES: CCCCCCCCc1ccc2nc(CCC(N)(CO)CO)ccc2c1 [Compound 80, 2-Amino-2-[2-(6-octylquinolin-2-yl)ethyl]propane-1,3-diol]
- Average inhibition %, biofilms viability ([1]; 50 µM): 9.8 ± 12.2%
- Average inhibition %, planktonic cells viability ([1]; 50 µM): 39.9 ± 11%
- Average inhibition %, biofilms viability ([1]; 100 µM): 10.5 ± 10%
- Average inhibition %, planktonic cells viability ([1]; 100 µM): 46.1 ± 11.6%
- Average inhibition %, biofilms viability ([1]; 150 µM): 14.3 ± 12.2%
- Average inhibition %, planktonic cells viability ([1]; 150 µM): 22.9 ± 1.7%
- Average inhibition %, biofilms viability ([1]; 200 µM): 15.3 ± 15.9%
- Average inhibition %, planktonic cells viability ([1]; 200 µM): 33.1 ± 16.1%
- inhibition at 50 µM [1, 5]: 5.2 ± 5.2%
- inhibition at 50 µM [1, 6]: 48 ± 11.1%
- inhibition at 100 µM ([1]; 100 µM, read-out: Average inhibition %, biofilms biomass): 0%
- inhibition at 100 µM ([1]; 100 µM, read-out: Average inhibition %, planktonic cells turbidity): 55.5 ± 5.2%
- inhibition at 150 µM ([1]; 150 µM, read-out: Average inhibition %, biofilms biomass): 12.1 ± 10.7%
- inhibition at 150 µM ([1]; 150 µM, read-out: Average inhibition %, planktonic cells turbidity): 42.1 ± 13.6%
- inhibition at 200 µM ([1]; 200 µM, read-out: Average inhibition %, biofilms biomass): 12.3 ± 19.1%
- inhibition at 200 µM ([1]; 200 µM, read-out: Average inhibition %, planktonic cells turbidity): 55.3 ± 0.9%
- MIC P. aeruginosa ATCC 9027 ([1]; pre-exposure, Inactive = no activity up to 200 μM, > = some inhibition but no MIC reached): Inactive
- Average inhibition %, biofilms viability ([2]; 10 µM): 0 ± 0%
- Average inhibition %, planktonic cells viability ([2]; 10 µM): 7.2 ± 5.2%
- Average inhibition %, biofilms viability ([2]; 15 µM): 71.9 ± 26.2%
- Average inhibition %, planktonic cells viability ([2]; 15 µM): 98.9 ± 0.3%
- Average inhibition %, biofilms viability ([2]; 25 µM): 101.6 ± 1.6%
- Average inhibition %, planktonic cells viability ([2]; 25 µM): 99.6 ± 0.1%
- Average inhibition %, biofilms viability ([2]; 50 µM): 101.8 ± 1.3%
- Average inhibition %, planktonic cells viability ([2]; 50 µM): 99.5 ± 0.2%
- inhibition at 10 µM [2, 7]: 1.6 ± 2.8%
- inhibition at 10 µM [2, 8]: 0.8 ± 1.5%
- inhibition at 15 µM [2, 9]: 53 ± 33.4%
- inhibition at 15 µM [2, 10]: 96.4 ± 3%
- inhibition at 25 µM [2, 11]: 84.3 ± 5.9%
- inhibition at 25 µM [2, 12]: 99 ± 0.9%
- inhibition at 50 µM [2, 5]: 74.7 ± 11.4%
- inhibition at 50 µM [2, 6]: 98.8 ± 0.9%
- MIC ([2]; pre-exposure, Inactive = no activity up to 50 μM, > = some inhibition but no MIC reached, read-out: MIC A. baumannii NCTC 13423): 15 to 25 µM (≈ 5.38 to 8.96 µg/mL)
- MIC ([2]; supplementary molecular formula strings sheet, read-out: MIC (A. baumannii)): 15 to 25 µM (≈ 5.38 to 8.96 µg/mL)
- MIC ([3]; lowest concentration with no visible growth (>90% inhibition of turbidity and viability of planktonic cells), 18 h, read-out: MIC S. aureus ATCC 25923): 10 µM (≈ 3.59 µg/mL)
- inhibition at 5 µM ([3]; 5 µM, read-out: Average inhibition %, biofilms biomass): 24.2 ± 6.6%
- inhibition at 5 µM ([3]; 5 µM, read-out: Average inhibition %, planktonic cells turbidity): 43 ± 17%
- inhibition at 10 µM [3, 7]: 97.6 ± 1%
- inhibition at 10 µM [3, 8]: 99 ± 0.7%
- inhibition at 15 µM [3, 9]: 97.3 ± 0.6%
- inhibition at 15 µM [3, 10]: 99.5 ± 0.3%
- inhibition at 25 µM [3, 11]: 92.3 ± 1.5%
- inhibition at 25 µM [3, 12]: 99.1 ± 0.3%
- MIC ([3]; read-out: MIC (S. aureus)): 10 µM (≈ 3.59 µg/mL)
- Average inhibition %, biofilms viability ([3]; 5 µM): 26.7 ± 15.1%
- Average inhibition %, planktonic cells viability ([3]; 5 µM): 13.9 ± 22.4%
- Average inhibition %, biofilms viability ([3]; 10 µM): 99.2 ± 1.4%
- Average inhibition %, planktonic cells viability ([3]; 10 µM): 99.4 ± 0%
- Average inhibition %, biofilms viability ([3]; 15 µM): 99.5 ± 0.5%
- Average inhibition %, planktonic cells viability ([3]; 15 µM): 99.5 ± 0%
- Average inhibition %, biofilms viability ([3]; 25 µM): 99.4 ± 0.3%
- Average inhibition %, planktonic cells viability ([3]; 25 µM): 99.7 ± 0%
- Average inhibition %, biofilms viability ([4]; 25 µM): 13.8 ± 11.7%
- Average inhibition %, planktonic cells viability ([4]; 25 µM): 17.5 ± 26.7%
- Average inhibition %, biofilms viability ([4]; 50 µM): 29.8 ± 10.2%
- Average inhibition %, planktonic cells viability ([4]; 50 µM): 21.5 ± 33.1%
- Average inhibition %, biofilms viability ([4]; 100 µM): 48.6 ± 5.2%
- Average inhibition %, planktonic cells viability ([4]; 100 µM): 81 ± 8%
- Average inhibition %, biofilms viability ([4]; 200 µM): 48.4 ± 12%
- Average inhibition %, planktonic cells viability ([4]; 200 µM): 93.2 ± 1.3%
- inhibition at 25 µM [4, 13]: 25.1 ± 16.4%
- inhibition at 25 µM [4, 14]: 31.7 ± 26.5%
- inhibition at 50 µM [4, 13]: 50.2 ± 3.2%
- inhibition at 50 µM [4, 14]: 26 ± 39.1%
- inhibition at 100 µM [4, 13]: 61.9 ± 7.7%
- inhibition at 100 µM [4, 14]: 64.3 ± 18.5%
- inhibition at 200 µM [4, 13]: 51.5 ± 9.6%
- inhibition at 200 µM [4, 14]: 73.4 ± 9.8%
